Test results: ChEMBL document CHEMBL5550178, “Synthesis and anticancer properties of novel dolastatin 10 analogs featuring five-membered heterocyclic rings with a linkable group at the C-terminus” (Bioorg Med Chem, 2024)
Activity calls are given as the source filed them. No cut-off for these calls is given here.

Key:
[1] = tested on: MDA-MB-231; assay: Cytotoxicity against human MDA-MB-231 cells assessed as inhibition of cell growth measured after 8 days by XTT cell viability assay; format: functional, cell-based; details: MDA-MB-231, 192 h
[2] = tested on: PC-3; assay: Cytotoxicity against human PC-3 cells assessed as inhibition of cell growth measured after 8 days by XTT cell viability assay; format: functional, cell-based; details: PC-3, 192 h
[3] = Cytotoxicity against human Fibroblast cells assessed as inhibition of cell growth measured after 8 days by XTT cell viability assay; format: toxicity, cell-based
[4] = tested on: NCI-H1299; assay: Cytotoxicity against human NCI-H1299 cells assessed as inhibition of cell growth measured after 8 days by XTT cell viability assay; format: functional, cell-based; details: NCI-H1299, 192 h
[5] = tested on: PANC-1; assay: Cytotoxicity against human PANC-1 cells assessed as inhibition of cell growth measured after 8 days by XTT cell viability assay; format: functional, cell-based; details: PANC-1, 192 h
[6] = tested on: PC-3; assay: Induction of cell cycle arrest in human PC-3 cells assessed as accumulation of cells at G2/M phase at 1 nM measured after 8 days by PI staining based flow cytometry analysis (reference value: 12.4%); format: functional; details: time 8 day
[7] = tested on: PC-3; assay: Induction of cell cycle arrest in human PC-3 cells assessed as accumulation of cells at G1/G0 phase at 1000 nM measured after 4 days by PI staining based flow cytometry analysis (reference value: 78.3%); format: functional; details: time 4 day
[8] = tested on: PC-3; assay: Induction of cell cycle arrest in human PC-3 cells assessed as accumulation of cells at G2/M phase at 1000 nM measured after 6 days by PI staining based flow cytometry analysis (reference value: 15.8%); format: functional; details: time 6 day
[9] = tested on: PC-3; assay: Induction of cell cycle arrest in human PC-3 cells assessed as accumulation of cells at G2/M phase at 1000 nM measured after 4 days by PI staining based flow cytometry analysis (reference value: 11.9%); format: functional; details: time 4 day
[10] = tested on: PC-3; assay: Induction of cell cycle arrest in human PC-3 cells assessed as accumulation of cells at S phase at 50 nM measured after 6 days by PI staining based flow cytometry analysis (reference value: 14.4%); format: functional; details: time 6 day
[11] = tested on: PC-3; assay: Induction of cell cycle arrest in human PC-3 cells assessed as accumulation of cells at G2/M phase at 1 nM measured after 4 days by PI staining based flow cytometry analysis (reference value: 11.9%); format: functional; details: time 4 day
[12] = tested on: PC-3; assay: Induction of cell cycle arrest in human PC-3 cells assessed as accumulation of cells at G1/G0 phase at 1 nM measured after 8 days by PI staining based flow cytometry analysis (reference value: 64.6%); format: functional; details: time 8 day
[13] = tested on: PC-3; assay: Induction of cell cycle arrest in human PC-3 cells assessed as accumulation of cells at G1/G0 phase at 1000 nM measured after 8 days by PI staining based flow cytometry analysis (reference value: 64.6%); format: functional; details: time 8 day
[14] = tested on: PC-3; assay: Induction of cell cycle arrest in human PC-3 cells assessed as accumulation of cells at G1/G0 phase at 1 nM measured after 6 days by PI staining based flow cytometry analysis (reference value: 70.7%); format: functional; details: time 6 day
[15] = tested on: PC-3; assay: Induction of cell cycle arrest in human PC-3 cells assessed as accumulation of cells at S phase at 1000 nM measured after 8 days by PI staining based flow cytometry analysis (reference value: 23.9%); format: functional; details: time 8 day
[16] = tested on: PC-3; assay: Induction of cell cycle arrest in human PC-3 cells assessed as accumulation of cells at G2/M phase at 1 nM measured after 6 days by PI staining based flow cytometry analysis (reference value: 15.8%); format: functional; details: time 6 day
[17] = tested on: PC-3; assay: Induction of cell cycle arrest in human PC-3 cells assessed as accumulation of cells at G1/G0 phase at 1000 nM measured after 6 days by PI staining based flow cytometry analysis (reference value: 70.7%); format: functional; details: time 6 day
[18] = tested on: PC-3; assay: Induction of cell cycle arrest in human PC-3 cells assessed as accumulation of cells at G1/G0 phase at 1 nM measured after 4 days by PI staining based flow cytometry analysis (reference value: 78.3%); format: functional; details: time 4 day
[19] = tested on: PC-3; assay: Induction of cell cycle arrest in human PC-3 cells assessed as accumulation of cells at S phase at 1000 nM measured after 4 days by PI staining based flow cytometry analysis (reference value: 9.87%); format: functional; details: time 4 day
[20] = tested on: PC-3; assay: Induction of cell cycle arrest in human PC-3 cells assessed as accumulation of cells at S phase at 50 nM measured after 8 days by PI staining based flow cytometry analysis (reference value: 23.9%); format: functional; details: time 8 day
[21] = tested on: PC-3; assay: Upregulation of caspase-3 expression in human PC-3 cells at 1 to 50 nM measured after 4 to 8 days by Western blot analysis; format: functional, cell-based; details: dose 1-50 nM, time 4-8 day
[22] = tested on: PC-3; assay: Induction of cell cycle arrest in human PC-3 cells assessed as accumulation of cells at S phase at 1 nM measured after 6 days by PI staining based flow cytometry analysis (reference value: 14.4%); format: functional; details: time 6 day
[23] = tested on: PC-3; assay: Induction of cell cycle arrest in human PC-3 cells assessed as accumulation of cells at G1/G0 phase at 50 nM measured after 8 days by PI staining based flow cytometry analysis (reference value: 64.6%); format: functional; details: time 8 day
[24] = tested on: PC-3; assay: Induction of cell cycle arrest in human PC-3 cells assessed as accumulation of cells at G1/G0 phase at 50 nM measured after 6 days by PI staining based flow cytometry analysis (reference value: 70.7%); format: functional; details: time 6 day
[25] = tested on: PC-3; assay: Induction of cell cycle arrest in human PC-3 cells assessed as accumulation of cells at G2/M phase at 1000 nM measured after 8 days by PI staining based flow cytometry analysis (reference value: 12.4%); format: functional; details: time 8 day
[26] = tested on: PC-3; assay: Induction of cell cycle arrest in human PC-3 cells assessed as accumulation of cells at G2/M phase at 50 nM measured after 6 days by PI staining based flow cytometry analysis (reference value: 15.8%); format: functional; details: time 6 day
[27] = tested on: PC-3; assay: Upregulation of BAX expression in human PC-3 cells at 1 to 50 nM measured after 6 days by Western blot analysis; format: functional, cell-based; details: dose 1-50 nM, time 6.0 day
[28] = tested on: PC-3; assay: Induction of cell cycle arrest in human PC-3 cells assessed as accumulation of cells at G2/M phase at 50 nM measured after 8 days by PI staining based flow cytometry analysis (reference value: 12.4%); format: functional; details: time 8 day
[29] = tested on: PC-3; assay: Upregulation of CYP1A1 expression in human PC-3 cells at 1 to 50 nM measured after 4 to 8 days by Western blot analysis; format: functional, cell-based; details: dose 1-50 nM, time 4-8 day
[30] = tested on: PC-3; assay: Induction of cell cycle arrest in human PC-3 cells assessed as accumulation of cells at G2/M phase at 50 nM measured after 4 days by PI staining based flow cytometry analysis (reference value: 11.9%); format: functional; details: time 4 day
[31] = tested on: PC-3; assay: Induction of cell cycle arrest in human PC-3 cells assessed as accumulation of cells at S phase at 50 nM measured after 4 days by PI staining based flow cytometry analysis (reference value: 9.87%); format: functional; details: time 4 day
[32] = tested on: PC-3; assay: Upregulation of BAX expression in human PC-3 cells at 1 to 50 nM measured after 8 days by Western blot analysis; format: functional, cell-based; details: dose 1-50 nM, time 8.0 day
[33] = tested on: PC-3; assay: Induction of cell cycle arrest in human PC-3 cells assessed as accumulation of cells at S phase at 1 nM measured after 8 days by PI staining based flow cytometry analysis (reference value: 23.9%); format: functional; details: time 8 day
[34] = tested on: PC-3; assay: Induction of cell cycle arrest in human PC-3 cells assessed as accumulation of cells at G1/G0 phase at 50 nM measured after 4 days by PI staining based flow cytometry analysis (reference value: 78.3%); format: functional; details: time 4 day
[35] = tested on: PC-3; assay: Induction of cell cycle arrest in human PC-3 cells assessed as accumulation of cells at S phase at 1 nM measured after 4 days by PI staining based flow cytometry analysis (reference value: 9.87%); format: functional; details: time 4 day
[36] = tested on: PC-3; assay: Induction of cell cycle arrest in human PC-3 cells assessed as accumulation of cells at S phase at 1000 nM measured after 6 days by PI staining based flow cytometry analysis (reference value: 14.4%); format: functional; details: time 6 day

CC[C@H](C)[C@@H]([C@@H](CC(=O)N1CCC[C@H]1[C@H](OC)[C@@H](C)C(=O)N[C@@H](Cc1ccccc1)Cn1cc(C(=O)O)nn1)OC)N(C)C(=O)[C@@H](NC(=O)[C@H](C(C)C)N(C)C)C(C)C
IC50 [1]: 0.0939 µM
IC50 [2]: 0.0157 µM
IC50 at 8 days [3]: 0.0392 µM
IC50 [4]: 0.137 µM
IC50 [5]: 0.052 µM

CC[C@H](C)[C@@H]([C@@H](CC(=O)N1CCC[C@H]1[C@H](OC)[C@@H](C)C(=O)N[C@@H](Cc1ccccc1)Cn1cc(CNC)nn1)OC)N(C)C(=O)[C@@H](NC(=O)[C@H](C(C)C)N(C)C)C(C)C
IC50 [1]: 0.0198 µM
IC50 [2]: 0.0089 µM
IC50 at 8 days [3]: 0.0384 µM
IC50 [4]: 0.0047 µM
IC50 [5]: 0.0013 µM

CC[C@H](C)[C@@H]([C@@H](CC(=O)N1CCC[C@H]1[C@H](OC)[C@@H](C)C(=O)N[C@@H](Cc1ccccc1)Cn1cc(CO)nn1)OC)N(C)C(=O)[C@@H](NC(=O)[C@H](C(C)C)N(C)C)C(C)C
IC50 [1]: 0.0634 µM
IC50 [2]: 0.0109 µM
IC50 at 8 days [3]: 0.0515 µM
IC50 [4]: 0.0078 µM
IC50 [5]: 0.0047 µM

CC[C@H](C)[C@@H]([C@@H](CC(=O)N1CCC[C@H]1[C@H](OC)[C@@H](C)C(=O)N[C@@H](Cc1ccccc1)c1nc(CN)cs1)OC)N(C)C(=O)[C@@H](NC(=O)[C@H](C(C)C)N(C)C)C(C)C
Activity [6]: 9.28%
Activity [7]: 64.5%
IC50 [1]: 0.0362 µM
Activity [8]: 12.8%
IC50 [2]: 0.0009 µM
Activity [9]: 18.5%
Activity [10]: 26.4%
Activity [11]: 9.06%
Activity [12]: 65.9%
Activity [13]: 38.1%
Activity [14]: 35.5%
IC50 at 8 days [3]: 0.0385 µM
Activity [15]: 40.9%
IC50 [4]: 0.0031 µM
Activity [16]: 36.5%
Activity [17]: 59.2%
Activity [18]: 77.1%
IC50 [5]: 0.0002 µM
Activity [19]: 17.8%
Activity [20]: 34.1%
Activity [21]: Active
Activity [22]: 29.5%
Activity [23]: 43.3%
Activity [24]: 59.6%
Activity [25]: 22.9%
Activity [26]: 15.3%
Activity [27]: Active
Activity [28]: 24%
Activity [29]: Active
Activity [30]: 12%
Activity [31]: 19.1%
Activity [32]: inactive
Activity [33]: 26.1%
Activity [34]: 69.8%
Activity [35]: 14.5%
Activity [36]: 29.3%

CC[C@H](C)[C@@H]([C@@H](CC(=O)N1CCC[C@H]1[C@H](OC)[C@@H](C)C(=O)N[C@@H](Cc1ccccc1)Cn1cc(CN)nn1)OC)N(C)C(=O)[C@@H](NC(=O)[C@H](C(C)C)N(C)C)C(C)C
IC50 [1]: 0.0946 µM
IC50 [2]: 0.0155 µM
IC50 at 8 days [3]: 0.0737 µM
IC50 [4]: 0.0187 µM
IC50 [5]: 0.0104 µM
